The values that follow are results of earlier work, collected in patent US20220378710A1, “Therapeutic Gas Microfoam for Skin Recovery” (Truly Oxygen, Inc., priority 2018, published 2022).

Molecules are shown by their SMILES.

For this data set the following is noted: topical co-administration of lipids, mammals.

On to `C=C(C)[C@@H]1CCC(C)=C[C@H]1c1c(O)cc(CCCCC)cc1O` [CBD, cannabidiol], for which the “increase in absorption and/or bioavailability” value is listed as roughly 3 fold.

For the molecule `CCCCCc1cc(O)c2c(c1)OC(C)(C)[C@@H]1CCC(C)=C[C@@H]21` [THC, Δ^9-tetrahydrocannabinol], the “increase in absorption and/or bioavailability” value is listed as “more than 2.5 fold”.
